ChEMBL document CHEMBL3045737, “Evaluation of toxicity and genotoxic effects of spinosad and deltamethrin in Drosophila melanogaster and Bactrocera oleae” (Pest Manag Sci, 2011)
In brackets after ≈: the same amount, converted by molar mass.

Experiments:
Drosophila melanogaster [1] = experiment: Genotoxicity in Drosophila melanogaster larvae at 10^-3 M; assay type: organism-based; settings: in vivo, 1000 µM
Drosophila melanogaster [2] = experiment: Insecticidal activity against Drosophila melanogaster larvae assessed as death at 24 +/- 1 degC, 60%RH; assay type: functional; settings: for LC50: Drosophila melanogaster
Bactrocera oleae [3] = experiment: Insecticidal activity against Bactrocera oleae adults assessed as death treated upto 192 hr at 24 +/- 1 degC, 60%RH; assay type: functional; settings: for LC50: Bactrocera oleae, 192 h
Drosophila melanogaster [4] = experiment: Insecticidal activity against Drosophila melanogaster adults assessed as death treated upto 192 hr at 24 +/- 1 degC, 60%RH; assay type: functional; settings: for LC50: Drosophila melanogaster, 192 h
Bactrocera oleae [5] = experiment: Insecticidal activity against Bactrocera oleae adults assessed as death treated upto 72 hr at 24 +/- 1 degC, 60%RH; assay type: functional; settings: for LC50: Bactrocera oleae, 72 h
Bactrocera oleae [6] = experiment: Insecticidal activity against Bactrocera oleae adults assessed as death treated upto 24 hr at 24 +/- 1 degC, 60%RH; assay type: functional; settings: for LC50: Bactrocera oleae, 24 h
Drosophila melanogaster [7] = experiment: Genotoxicity in Drosophila melanogaster larvae at 0.10 to 0.30 mg/l; assay type: organism-based; settings: in vivo
Drosophila melanogaster [8] = experiment: Insecticidal activity against Drosophila melanogaster adults assessed as death treated upto 72 hr at 24 +/- 1 degC, 60%RH; assay type: functional; settings: for LC50: Drosophila melanogaster, 72 h
Drosophila melanogaster [9] = experiment: Insecticidal activity against Drosophila melanogaster adults assessed as death treated upto 24 hr at 24 +/- 1 degC, 60%RH; assay type: functional; settings: for LC50: Drosophila melanogaster, 24 h
Drosophila melanogaster [10] = experiment: Insecticidal activity against Drosophila melanogaster adults assessed as death treated upto 120 hr at 24 +/- 1 degC, 60%RH; assay type: functional; settings: for LC50: Drosophila melanogaster, 120 h
Bactrocera oleae [11] = experiment: Insecticidal activity against Bactrocera oleae adults assessed as death treated upto 120 hr at 24 +/- 1 degC, 60%RH; assay type: functional; settings: for LC50: Bactrocera oleae, 120 h
Drosophila melanogaster [12] = experiment: Genotoxicity in Drosophila melanogaster larvae at 7.50 to 10 mg/l; assay type: organism-based; settings: in vivo

| Structure (SMILES) | LC90 (Drosophila melanogaster [2]) [mg/L] | LC50 (Drosophila melanogaster [2]) [mg/L] | LC90 (Bactrocera oleae [3]) [mg/L] | LC50 (Bactrocera oleae [3]) [mg/L] | LC90 (Drosophila melanogaster [4]) [mg/L] | LC50 (Drosophila melanogaster [4]) [mg/L] | LC90 (Bactrocera oleae [5]) [mg/L] | LC50 (Bactrocera oleae [5]) [mg/L] | LC90 (Bactrocera oleae [6]) [mg/L] | LC50 (Bactrocera oleae [6]) [mg/L] | LC90 (Drosophila melanogaster [8]) [mg/L] | LC50 (Drosophila melanogaster [8]) [mg/L] | LC90 (Drosophila melanogaster [9]) [mg/L] | LC50 (Drosophila melanogaster [9]) [mg/L] | LC90 (Drosophila melanogaster [10]) [mg/L] | LC50 (Drosophila melanogaster [10]) [mg/L] | LC90 (Bactrocera oleae [11]) [mg/L] | LC50 (Bactrocera oleae [11]) [mg/L] | further results |
| --- | --- | --- | --- | --- | --- | --- | --- | --- | --- | --- | --- | --- | --- | --- | --- | --- | --- | --- | --- |
| CCOS(C)(=O)=O [METHANESULFONIC ACID ETHYL ESTER] |  |  |  |  |  |  |  |  |  |  |  |  |  |  |  |  |  |  | Activity (Drosophila melanogaster [1]): Toxic |
| CC[C@H]1CCC[C@H](O[C@H]2CC[C@H](N(C)C)[C@@H](C)O2)[C@@H](C)C(=O)C2=C[C@@H]3[C@@H](C=C(C)[C@@H]4C[C@@H](O[C@@H]5O[C@@H](C)[C@H](OC)[C@@H](OC)[C@H]5OC)C[C@@H]34)[C@@H]2CC(=O)O1.CC[C@H]1CCC[C@H](O[C@H]2CC[C@H](N(C)C)[C@@H](C)O2)[C@@H](C)C(=O)C2=C[C@@H]3[C@@H](C=C[C@@H]4C[C@@H](O[C@@H]5O[C@@H](C)[C@H](OC)[C@@H](OC)[C@H]5OC)C[C@@H]34)[C@@H]2CC(=O)O1 | 0.308 | 0.13 | 0.345 | 0.111 | 0.367 | 0.262 | 0.598 | 0.341 | 7.277 | 4.06 | 1.998 | 1.26 | 5.604 | 3.8 | 1.074 | 0.75 | 0.422 | 0.191 | Activity (Drosophila melanogaster [7]): Non-toxic |
| CC1(C)[C@H](C(=O)O[C@H](C#N)c2cccc(Oc3ccccc3)c2)[C@@H]1C=C(Br)Br [DELTAMETHRIN] | 17.41 (≈ 34.5 µM) | 4.96 (≈ 9.81 µM) | 0.398 (≈ 0.788 µM) | 0.414 (≈ 0.819 µM) | 10.352 (≈ 20.5 µM) | 4.82 (≈ 9.53 µM) | 1.002 (≈ 1.98 µM) | 0.344 (≈ 0.681 µM) | 6.033 (≈ 11.9 µM) | 2.85 (≈ 5.64 µM) | 14.591 (≈ 28.9 µM) | 8.03 (≈ 15.9 µM) | 31.682 (≈ 62.7 µM) | 17.1 (≈ 33.8 µM) | 13.599 (≈ 26.9 µM) | 7.24 (≈ 14.3 µM) | 0.161 (≈ 0.319 µM) | 0.176 (≈ 0.348 µM) | Activity (Drosophila melanogaster [12]): Non-toxic |
